Tests used:
Type in all cases: in vivo
[1] = tested on: Italian ryegrass (Lolium multiflorum); experiment: Test A postemergence, visual injury rating; conditions: 0 is no effect, 100 is complete control
Outline: (§1)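 Compounds in non-phytotoxic solvent with surfactant applied as soil spray preemergence, or postemergence to plants 2-10 cm at one- to two-leaf stage, in loam/sand. After approximately 10 days in greenhouse, injury rated visually versus untreated controls, 0 (no effect) to 100 (complete control).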

[2] = tested on: barnyardgrass (Echinochloa crus-galli); experiment: Test A postemergence, visual injury rating; conditions: 0 is no effect, 100 is complete control
Outline: as §1

[3] = tested on: blackgrass (Alopecurus myosuroides); experiment: Test A postemergence, visual injury rating; conditions: 0 is no effect, 100 is complete control
Outline: as §1

corn (Zea mays) = experiment: Test A postemergence, visual injury rating; conditions: 0 is no effect, 100 is complete control
Outline: as §1

[4] = tested on: galium (catchweed bedstraw, Galium aparine); experiment: Test A postemergence, visual injury rating; conditions: 0 is no effect, 100 is complete control
Outline: as §1

[5] = tested on: giant foxtail (Setaria faberii); experiment: Test A postemergence, visual injury rating; conditions: 0 is no effect, 100 is complete control
Outline: as §1

kochia (Kochia scoparia) = experiment: Test A postemergence, visual injury rating; conditions: 0 is no effect, 100 is complete control
Outline: as §1

[6] = tested on: pigweed (Amaranthus retroflexus); experiment: Test A postemergence, visual injury rating; conditions: 0 is no effect, 100 is complete control
Outline: as §1

[7] = tested on: ragweed (common ragweed, Ambrosia elatior); experiment: Test A postemergence, visual injury rating; conditions: 0 is no effect, 100 is complete control
Outline: as §1

[8] = tested on: wheat (Triticum aestivum); experiment: Test A postemergence, visual injury rating; conditions: 0 is no effect, 100 is complete control
Outline: as §1

[9] = tested on: chickweed (common chickweed, Stellaria media); experiment: Test C postemergence, plant response rating; conditions: for Plant response rating, Chickweed: scale 0 to 100; for Chickweed plant response rating: scale 0 to 100 (0 no effect, 100 complete control)
Outline: (§2)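 Both timings shared one formulation, a non-phytotoxic solvent mixture with surfactant, and a greenhouse period of 13 to 15 d. Preemergence used seeded loam/sand or silt loam soil, postemergence used 2 to 18 cm plants; visual ratings ran from 0 (no effect) to 100 (complete control).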

[10] = tested on: foxtail, giant (giant foxtail, Setaria faberii); experiment: Test C postemergence, plant response rating; conditions: for Plant response rating, Foxtail, Giant: scale 0 to 100; for Foxtail, Giant plant response rating: scale 0 to 100 (0 no effect, 100 complete control)
Outline: as §2

[11] = tested on: lambsquarters (Chenopodium album); experiment: Test C postemergence, plant response rating; conditions: for Plant response rating, Lambsquarters: scale 0 to 100; for Lambsquarters plant response rating: scale 0 to 100 (0 no effect, 100 complete control)
Outline: as §2

[12] = tested on: oat, wild (wild oat Avena fatua); experiment: Test C postemergence, plant response rating; conditions: for Plant response rating, Oat, Wild: scale 0 to 100; for Oat, Wild plant response rating: scale 0 to 100 (0 no effect, 100 complete control)
Outline: as §2

[13] = tested on: ragweed (common ragweed, Ambrosia elatior); experiment: Test C postemergence, plant response rating; conditions: for Plant response rating, Ragweed: scale 0 to 100; for Ragweed plant response rating: scale 0 to 100 (0 no effect, 100 complete control)
Outline: as §2

[14] = tested on: ryegrass, Italian (Italian ryegrass, Lolium multiflorum); experiment: Test C postemergence, plant response rating; conditions: for Plant response rating, Ryegrass, Italian: scale 0 to 100; for Ryegrass, Italian plant response rating: scale 0 to 100 (0 no effect, 100 complete control)
Outline: as §2

soybean (Glycine max) = experiment: Test C postemergence, plant response rating; conditions: for Plant response rating, Soybean: scale 0 to 100; for Soybean plant response rating: scale 0 to 100 (0 no effect, 100 complete control)
Outline: as §2

[15] = tested on: velvetleaf (Abutilon theophrasti); experiment: Test C postemergence, plant response rating; conditions: for Plant response rating, Velvetleaf: scale 0 to 100; for Velvetleaf plant response rating: scale 0 to 100 (0 no effect, 100 complete control)
Outline: as §2

[16] = tested on: waterhemp (common waterhemp, Amaranthus rudis); experiment: Test C postemergence, plant response rating; conditions: for Plant response rating, Waterhemp: scale 0 to 100; for Waterhemp plant response rating: scale 0 to 100 (0 no effect, 100 complete control)
Outline: as §2

[17] = 125 g ai/ha, 0 to 100 scale, approximately 10 days

CCCC(=O)c1c(Br)cccc1Oc1ncc(Cl)cn1 [Compound 75]
Ryegrass, Italian plant response rating [1, 17]: 40 | Ryegrass, Italian plant response rating (0 to 100 scale) ([1]; 500 g ai/ha): 70 | Barnyardgrass plant response rating (0 to 100 scale) ([2]; 125 g ai/ha): 90 | Barnyardgrass plant response rating (0 to 100 scale) ([2]; 500 g ai/ha): 100 | Blackgrass plant response rating (0 to 100 scale) ([3]; 125 g ai/ha): 40 | Blackgrass plant response rating (0 to 100 scale) ([3]; 500 g ai/ha): 60 | Corn plant response rating (0 to 100 scale) (corn (Zea mays); 125 g ai/ha): 80 | Corn plant response rating (0 to 100 scale) (corn (Zea mays); 500 g ai/ha): 90 | Galium plant response rating (0 to 100 scale) ([4]; 125 g ai/ha): 80 | Galium plant response rating (0 to 100 scale) ([4]; 500 g ai/ha): 100 | Foxtail, Giant plant response rating (0 to 100 scale) ([5]; 125 g ai/ha): 90 | Foxtail, Giant plant response rating (0 to 100 scale) ([5]; 500 g ai/ha): 100 | Kochia plant response rating (kochia (Kochia scoparia); [17]): 100 | Kochia plant response rating (0 to 100 scale) (kochia (Kochia scoparia); 500 g ai/ha): 100 | Pigweed plant response rating [6, 17]: 100 | Pigweed plant response rating (0 to 100 scale) ([6]; 500 g ai/ha): 100 | Ragweed plant response rating [7, 17]: 30 | Ragweed plant response rating (0 to 100 scale) ([7]; 500 g ai/ha): 40 | Wheat plant response rating [8, 17]: 20 | Wheat plant response rating (0 to 100 scale) ([8]; 500 g ai/ha): 70 | Plant response rating, Chickweed ([9]; 16 g ai/ha): 60 | Plant response rating, Chickweed ([9]; 31 g ai/ha): 85 | Chickweed plant response rating ([9]; 62 g ai/ha): 90 | Chickweed plant response rating ([9]; 125 g ai/ha): 98 | Plant response rating, Foxtail, Giant ([10]; 16 g ai/ha): 10 | Plant response rating, Foxtail, Giant ([10]; 31 g ai/ha): 10 | Foxtail, Giant plant response rating ([10]; 62 g ai/ha): 10 | Foxtail, Giant plant response rating ([10]; 125 g ai/ha): 25 | Plant response rating, Lambsquarters ([11]; 16 g ai/ha): 50 | Plant response rating, Lambsquarters ([11]; 31 g ai/ha): 55 | Lambsquarters plant response rating ([11]; 62 g ai/ha): 70 | Lambsquarters plant response rating ([11]; 125 g ai/ha): 90 | Plant response rating, Oat, Wild ([12]; 16 g ai/ha): 5 | Plant response rating, Oat, Wild ([12]; 31 g ai/ha): 35 | Oat, Wild plant response rating ([12]; 62 g ai/ha): 40 | Oat, Wild plant response rating ([12]; 125 g ai/ha): 35 | Plant response rating, Ragweed ([13]; 16 g ai/ha): 5 | Plant response rating, Ragweed ([13]; 31 g ai/ha): 10 | Ragweed plant response rating ([13]; 62 g ai/ha): 50 | Ragweed plant response rating ([13]; 125 g ai/ha): 60 | Plant response rating, Ryegrass, Italian ([14]; 16 g ai/ha): 0 | Plant response rating, Ryegrass, Italian ([14]; 31 g ai/ha): 10 | Ryegrass, Italian plant response rating ([14]; 62 g ai/ha): 10 | Ryegrass, Italian plant response rating ([14]; 125 g ai/ha): 5 | Plant response rating, Soybean (soybean (Glycine max); 16 g ai/ha): 50 | Plant response rating, Soybean (soybean (Glycine max); 31 g ai/ha): 65 | Soybean plant response rating (soybean (Glycine max); 62 g ai/ha): 85 | Soybean plant response rating (soybean (Glycine max); 125 g ai/ha): 85 | Plant response rating, Velvetleaf ([15]; 16 g ai/ha): 30 | Plant response rating, Velvetleaf ([15]; 31 g ai/ha): 35 | Velvetleaf plant response rating ([15]; 62 g ai/ha): 70 | Velvetleaf plant response rating ([15]; 125 g ai/ha): 75 | Plant response rating, Waterhemp ([16]; 16 g ai/ha): 85 | Plant response rating, Waterhemp ([16]; 31 g ai/ha): 90 | Waterhemp plant response rating ([16]; 62 g ai/ha): 90 | Waterhemp plant response rating ([16]; 125 g ai/ha): 95

Source: US11053204B2, “Pyrimidinyloxy benzene derivatives as herbicides” (FMC Corporation, priority 2015, dated 2021)
